Literature values, collected in patent publication US20240165036A1, “ENCAPSULATED VITAMIN D” (Nulixir Inc., priority 2022, published 2024).

Details: reference phases water and n-octanol; pH=7 unless stated otherwise

| SMILES | log P |
| --- | --- |
| CCNC(=O)CC[C@H](N)C(=O)O [L-theanine] | ~−3 |
| COc1ccc(/C=C/c2cc(OC)cc(=O)o2)cc1 [yangonin] | ~2.8 |
| N[C@@H](Cc1ccccc1)C(=O)O [L-phenylalanine] | ~−1.38 |
| N[C@@H](Cc1c[nH]c2ccc(O)cc12)C(=O)O [Dispersion 5-HTP, 5-hydroxytryptophan] | ~−2 |
| NCCCC(=O)O [GABA, gamma-aminobutyric acid] | ~−3 |
| O=C(O)c1cc(C(=O)O)c2c(n1)C(=O)C(=O)c1cc(C(=O)O)[nH]c1-2 [PQQ, pyrroloquinoline quinone] | ~0.4 |
| COc1cc(O)c2c(=O)c(OC)c(-c3ccc(O)cc3)oc2c1 [kumatakenin] | ~2.5 |
| O=C(/C=C/c1ccccc1)N1CCCC1 [(E)-1-cinnamoylpyrrolidine] | ~2.2 |
| Cn1cnc2c1c(=O)[nH]c(=O)n2C [theobromine] | ~−0.78 |
